Reference: patent US20060029548A1, “Methods of diagnosing, monitoring and treating pulmonary diseases” (priority 2004, published 2006)
Where “and” joins values, the source holds several entries; their conditions need not be identical. Equal values may be shown once.

What was measured:
Type in all cases: in vivo
[1] = tested on: human subjects (cough, throat irritation, sputum); test: Symptoms other than dyspnoea recorded after inhalation challenge; details: all subjects
From the text: (§1) The clinical study described in Examples 2-4 was randomized, double blind, crossover, and controlled. Each subject attended the laboratory on three occasions. Procedures on the initial screening visit included obtaining information about the study and a number of investigations in the following order: medical history, lung function, reversibility and skin prick testing. At visit 2 and 3, separated by 2-7 days, the subjects were subjected to either an ATP or AMP challenge in a randomized fashion such that, by the end of the study, each patient had been tested with both compounds. Before, immediately after, and 30 minutes after the challenge, lung function and Borg score for dyspnoea were determined, and symptoms other than dyspnoea were recorded.
(§2) For the tests described in Examples 2-4, ATP and AMP (Sigma, Gillingham, Dorset, England) were dissolved freshly in normal saline solution to produce a range of doubling concentrations from 0.227-929 umol/ml for ATP and from 0.138-1152 umol/ml for AMP and immediately used for bronchial challenge. The solutions were administered using a breath-activated dosimeter (Mefar, Bovezzo, Italy) with an output of 10 ul per inhalation [Prieto et al. (2003) Chest 123:993-997]. The subjects, while wearing a nose clip, inhaled (via a mouthpiece) five breaths of normal saline, followed by sequential doubling concentrations of either ATP or AMP from functional residual capacity to total lung capacity. FEV1 was measured from two minutes after the fifth inhalation of normal saline until there was a fall in FEV1 of ≧20% of its value recorded after saline inhalation or until maximal concentration of either ATP or AMP was inhaled. The provocative dose causing a 20% decrease in FEV1 (PD20) was calculated by interpolation of the logarithmic dose response curve.

[2] = tested on: human subjects (airway responsiveness, FEV1); test: Inhalation challenge test: airway responsiveness measured as change in FEV1 (PD20); details: for PD20 geometric mean: non-responders excluded; for PD20: individual subjects
From the text: as §1
In the clinical study described in Examples 2-4, spirometric tests were performed using a dry spirometer (Vitalograph Ltd., Buckingham, England) and the best value of the three expiratory manoeuvers was expressed as liters and percentage of the predicted.
as §2
All data from the analyses described in Examples 2-4 were performed with a software package (GraphPad Prism Software, Inc., USA). The significance of differences among groups was assessed by Student's t-test, and analysis of categorical variables was examined by Chi-square test. Pearson's correlation coefficient and linear regression analysis were used to analyze the relationship between the percentage decreases in FEV1 and Borg score. The PD20 values for ATP and AMP were logarithmically transformed to normalize their distribution and presented as geometric means. All other numerical variables were expressed as the mean±SEM and significance was defined as p<0.05.

[3] = tested on: vagal C fiber; test: Vagal activation experiments in dogs: action potentials in vagal C fibers; details: anesthetized dog, rapid bolus; simultaneous recording with RAR-containing fiber
Protocol: The experiments described in Example 5 were performed essentially as described in Pelleg et al. [(1996) J. Physiol. 490(1):265-275] and U.S. Pat. No. 5,874,420, both of which are incorporated herein by reference in their entirety. In brief, they were performed on anesthetized (sodium pentobarbitone, 30 mg kg^−1 plus 3 mg kg^−1 h^−1, intravenous) dogs artificially ventilated with room air using a respirator. Arterial blood pH, PO2, PCO2, body temperature were maintained as described in U.S. Pat. No. 5,874,420. A peripheral vein was cannulated for the administration of physiological saline solution and maintenance doses of anesthetic. Catheters were introduced via the femoral vein and left atrial appendage and positioned in the right atrium and left atrium for the administration of test solutions. The chest was opened by a longitudinal sternotomy. The right cervical vagosympathetic trunk was exposed by a midcervical longitudinal section of the skin and careful dissection of neck muscles and connective tissues. The edges of the cut skin were elevated and secured to create a trough which was filled with warm (about 37° C.) mineral oil. A section of the vagosympathetic trunk was placed on a small plate of black Perspex™ and fine branches were separated from the main bundle by careful dissection using microsurgical tools and a dissecting microscope (Model F212, Jenopik Jena, GmbH, Germany).
Extracellular neural action potentials were recorded using a custom-made bipolar electrode that contained two platinum-iridium wires (1.25 cm×0.0125 cm) connected to a high-impedence first-stage differential amplifier (model AC8331, CW, Inc., Ardmore, Pa.) via a shielded cable. The output of the first-stage amplifier was fed into a second-stage differential amplifier (model BMA-831/C, CWE, Inc.). Isolated fibers were laid on the pair of platinum-iridium wires. Vagal C fibers with chemosensitive endings have a sparse irregular discharge which is not associated with cardiac or respiratory cycles. […]
ATP (3 umole kg^−1) and capsaicin (10 ug kg^−1) were administered as a rapid bolus into the right atrium (5 ml test solution+5 ml physiological saline flush). α,βmATP and β,γmATP were given as one low dose only (0.75 umol kg^−1) to avoid systemic side effects. […] To exclude involvement of baroreceptors in the recorded neural activity, the latter was monitored before and after a bolus of nitroglycerine (1 mg; intravenous). […]

Nc1ncnc2c1ncn2[C@@H]1O[C@H](COP(=O)(O)OP(=O)(O)OP(=O)(O)O)[C@@H](O)[C@H]1O [ATP, adenosine 5′-triphosphate]
subjects who coughed after challenge [1]: 90% | subjects who had sputum after challenge [1]: 28% | subjects who had throat irritation after challenge [1]: 75% | patients with bronchoconstriction ([2]; 19 smoking subjects (seven healthy smokers, seven smokers at risk, five COPD)): 42% | mean PD20 ([2]; ATP-responsive COPD patients): 178.5 µmol/mL | PD20 geometric mean ([2]; COPD (n = 7)): 178.5 µmol/mL | patients who responded to challenge ([2]; COPD patients): 67% | PD20 geometric mean (range) ([2]; all subjects who had airway responsiveness): 72.9 (2.9-808.7) umol/ml | PD20 geometric mean ([2]; asthma (n = 10)): 48.7 µmol/mL | mean PD20 ([2]; asthma patients): 48.7 µmol/mL | response to challenge ([2]; healthy non-smokers, no change in FEV1 or reduction of less than 20%): negative | control subjects who responded ([2]; healthy smoker control subjects): three of seven | subjects who responded to challenge ([2]; healthy smokers): 57% | PD20 geometric mean ([2]; healthy smokers (n = 7)): 197.0 µmol/mL | PD20 ([2]; COPD (n = 7)): 2.9 μmol/ml and >929 μmol/ml (2×) and 242.8 μmol/ml and 72.0 μmol/ml and 163.1 μmol/ml and 808.7 μmol/ml | PD20 ([2]; asthma (n = 10)): 44.8 µmol/mL and 23.6 µmol/mL and 20.9 µmol/mL and 67.9 µmol/mL and 92.2 µmol/mL and 160.6 µmol/mL and 18.1 µmol/mL and 28.1 µmol/mL and 137.0 µmol/mL and 49.0 µmol/mL | PD20 ([2]; healthy smokers (n = 7)): 303.4 μmol/ml and >929 μmol/ml (3×) and 70.2 μmol/ml and 442.4 μmol/ml and 159.9 μmol/ml | PD20 ([2]; non-smokers (n = 10), provocative dose causing 20% decrease in FEV1): >929 µmol/mL | PD20 ([2]; smokers at risk (n = 7)): >929 μmol/ml (6×) and 52.8 μmol/ml | PD20 geometric mean ([2]; non-smokers (n = 10)): >929 µmol/mL | subjects responsive to challenge ([2]; of the 40 subjects in the study): 47.5% | patients who responded to challenge ([2]; patients with asthma): 100% | ΔFEV1 (decrease in FEV1 as percentage of baseline FEV1) ([2]; patients with asthma): 29% | subjects who responded to challenge ([2]; smokers at risk): 14% | PD20 geometric mean ([2]; smokers at risk (n = 7)): 52.8 µmol/mL | effect on action potentials of C fibers [3]: stimulated both the C fibers and RAR-containing fibers
